From patent US12219958B2, “Glufosinate additive for improved weed control” (THE BOARD OF TRUSTEES OF THE UNIVERSITY OF ARKANSAS, priority 2019, dated 2025)
Where a name gives a salt, the structure may show the parent alone.

Legend:
[1] = tested on: johnsongrass; experiment: Field experiment, johnsongrass control with glufosinate + additive at 10 pm (Example 5, FIG. 12); assay type: in vivo
[2] = tested on: Palmer amaranth; experiment: Field experiment, Palmer amaranth control with glufosinate + additive at 10 pm (Example 5, FIG. 11); assay type: in vivo, Amaranthus palmeri
[3] = tested on: Enlist cotton, XtendFlex cotton, LibertyLink GT27 soybean, and LibertyLink corn; details: in vivo
[4] = tested on: Enlist cotton, XtendFlex cotton, LibertyLink GT27 soybean, and LibertyLink corn; details: in vivo; remark: listed apart in the source
[5] = tested on: native mixture of Palmer amaranth and waterhemp; set-up: species or system Amaranthus palmeri, Amaranthus tuberculatus; details: in vivo
[6] = tested on: native large crabgrass populations; experiment: Field experiment, large crabgrass control (Examples 2 and 3, FIG. 6); assay type: in vivo; details: added to glufosinate 655 g ai/ha; saflufenacil 1 g ai/ha, acifluorfen 14 g ai/ha; 10 pm

SMILES | increase in glufosinate efficacy of johnsongrass ([1]; in vivo) | increase in glufosinate efficacy of Palmer amaranth ([2]; in vivo) | crop response [3] | crop impact of glufosinate and the additive applied during the day [4] | crop injury when applied at 10 pm versus 10 am [4] | effect of the additive on reductions in weed control due to low-light intensity [5] | effect of the additive on reductions in weed control due to low-light intensity [6] | increase in glufosinate efficacy of johnsongrass ([1]; low-light conditions (10 pm), glufosinate 655 g ai/ha + additive 280 g ai/ha, 15 to 20-cm tall johnsongrass) | increase in glufosinate efficacy of Palmer amaranth ([2]; low-light conditions (10 pm), glufosinate 655 g ai/ha + additive 280 g ai/ha, 25 to 30-cm tall Palmer amaranth)
CCOP(=S)(OCC)Oc1nc(Cl)c(Cl)cc1Cl [Chlorpyrifos, O,O-Diethyl O-3,5,6-trichloropyridin-2-yl phosphorothioate] | greatest increase | greatest increase | not eliciting a negative crop response |  |  |  |  |  | 
O=C(O)c1cc(Oc2ccc(C(F)(F)F)cc2Cl)ccc1[N+](=O)[O-] [acifluorfen] |  |  |  | negatively impacted at least one of the crops | less | did not alleviate reductions in weed control | did not alleviate reductions in weed control |  | 
CCOC(=O)/C=C\C(=O)OCC [diethyl maleate] |  |  |  |  |  |  |  | greatest increase | greatest increase
CC(C)N(C)S(=O)(=O)NC(=O)c1cc(-n2c(=O)cc(C(F)(F)F)n(C)c2=O)c(F)cc1Cl [saflufenacil, N′-{2-Chloro-4-fluoro-5-[1,2,3,6-tetrahydro-3-methyl-2,6-dioxo-4-(trifluoromethyl)pyrimidin-1-yl]benzoyl}-N-isopropyl-N-methylsulfamide] |  |  |  | negatively impacted at least one of the crops | less | did not alleviate reductions in weed control | did not alleviate reductions in weed control |  | 
